What follows are compounds tested against human recombinant KAT-II (Homo sapiens (Human), UniProt Q8N5Z0) (assay: KAT-II inhibitory test). Details: 3.0 μmol/L kynurenine, 37° C., 1 hr, pH 8.0; kynurenic acid quantified by HPLC.
Type: biochemical
Experimental: The compounds described in the above-mentioned Examples were used for the KAT-II inhibitory test.
Preparation of Human Recombinant KAT-II
Human recombinant KAT-II was prepared as follows.
His tag and maltose binding protein tag were added to the N-terminal of a gene encoding human KAT-II (Genbank accession number: AF481738.1), and the obtained gene was incorporated into pET32 (Merck Nihon Millipore), which is an Escherichia coli expression vector. Human recombinant KAT-II produced by BL21(DE3) Escherichia coli (Merck Nihon Millipore, 69450) transformed using the plasmid was purified using an amylose resin column (New England Biolabs, #800-21 L).
The inhibitory action of the test compound on human recombinant KAT-II was determined by the following method.
To a reaction mixture (45 μL) containing 3.0 μmol/L kynurenine, 10 μmol/L pyridoxal phosphate, 2.0 ng/μL human recombinant KAT-II, and 150 mmol/L tris(hydroxymethyl)aminomethane-acetate buffer (pH 8.0) was added a 10% dimethyl sulfoxide solution (5 μL) of each test compound prepared, and the mixture was reacted at 37° C. for 1 hr. After the reaction, 50% trichloroacetic acid (5 μL) was added to terminate the reaction.
The resultant kynurenic acid was quantified as follows by high performance liquid chromatography. An enzyme reaction mixture was separated by an octadecylsilane reversed-phase column (SC-50DS, Eicom Corporation; mobile phase: 250 mmol/L zinc acetate, 50 mmol/L sodium acetate, and 5.0% acetonitrile (pH 6.2)) incubated at 30° C., and kynurenic acid was quantified using a fluorescence detector (RF-20Axs, Shimadzu Corporation) at excitation wavelength 354 nm, detection wavelength 460 nm. The analytical curve was drawn every time by an external standard method. Each test compound was tested by dual measurement at each concentration.

human recombinant KAT-II, sequence (Q8N5Z0 30-425): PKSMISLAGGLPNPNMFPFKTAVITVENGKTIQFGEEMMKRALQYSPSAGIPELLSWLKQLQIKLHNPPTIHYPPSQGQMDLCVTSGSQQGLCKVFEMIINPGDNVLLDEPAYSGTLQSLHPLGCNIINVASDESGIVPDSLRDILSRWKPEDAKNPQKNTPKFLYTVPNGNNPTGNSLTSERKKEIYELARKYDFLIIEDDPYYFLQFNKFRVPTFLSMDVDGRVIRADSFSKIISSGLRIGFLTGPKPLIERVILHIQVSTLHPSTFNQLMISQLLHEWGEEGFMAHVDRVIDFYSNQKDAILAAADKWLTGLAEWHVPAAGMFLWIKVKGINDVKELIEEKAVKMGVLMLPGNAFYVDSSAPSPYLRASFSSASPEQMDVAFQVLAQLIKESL

SMILES | IC50 [nM]
CCc1nc2sc([C@H]3CCCN3C(=O)Oc3ccccc3)nc2c(=O)n1Cc1ccc(OC)cc1OC [Example 111, (R)-2-[6-(2,4-dimethoxybenzyl)-5-ethyl-7-oxo-6,7-dihydro[1,3]thiazolo[5,4-d]pyrimidin-2-yl]pyrrolidine-1-carboxylic acid phenyl ester] | 270
CCc1nc2sc([C@H]3CCCN3C(=O)Oc3ccccc3)nc2c(=O)[nH]1 [Example 114, (R)-2-(5-ethyl-7-oxo-6,7-dihydro[1,3]thiazolo[5,4-d]pyrimidin-2-yl)pyrrolidine-1-carboxylic acid phenyl ester] | 29
CC1(c2nc3sc([C@H]4CCCN4C(=O)Oc4ccccc4)nc3c(=O)[nH]2)COC1 [Example 116, (R)-2-[5-(3-methyloxetan-3-yl)-7-oxo-6,7-dihydro[1,3]thiazolo[5,4-d]pyrimidin-2-yl]pyrrolidine-1-carboxylic acid phenyl ester] | 14
Cc1noc(-c2nc3sc([C@H]4CCCN4C(=O)Oc4ccccc4)nc3c(=O)[nH]2)n1 [Example 120, (R)-2-[5-(3-methyl-[1,2,4]oxadiazol-5-yl)-7-oxo-6,7-dihydro[1,3]thiazolo[5,4-d]pyrimidin-2-yl]pyrrolidine-1-carboxylic acid phenyl ester] | 4.7
CC(C)(F)c1nc2sc(N3CCCN3C(=O)Oc3ccccc3)nc2c(=O)[nH]1 [Example 131, 2-[5-(2-fluoropropan-2-yl)-7-oxo-6,7-dihydro[1,3]thiazolo[5,4-d]pyrimidin-2-yl]pyrazolidine-1-carboxylic acid phenyl ester] | 110
Cc1cccc(OC(=O)N2CCCN2c2nc3c(=O)[nH]c(C(C)(C)F)nc3s2)c1 [Example 132, 2-[5-(2-fluoropropan-2-yl)-7-oxo-6,7-dihydro[1,3]thiazolo[5,4-d]pyrimidin-2-yl]pyrazolidine-1-carboxylic acid 3-methylphenyl ester] | 51
CC(C)(F)c1nc2sc(N3CCCN3C(=O)Cc3ccccc3)nc2c(=O)[nH]1 [Example 133, 5-(2-fluoropropan-2-yl)-2-[2-(phenylacetyl)pyrazolidin-1-yl]-6H-[1,3]thiazolo[5,4-d]pyrimidin-7-one] | 150
Cc1cccc(CC(=O)N2CCCN2c2nc3c(=O)[nH]c(C(C)(C)F)nc3s2)c1 [Example 134, 5-(2-fluoropropan-2-yl)-2-{2-[2-(3-methylphenyl)acetyl]pyrazolidin-1-yl}-6H-[1,3]thiazolo[5,4-d]pyrimidin-7-one] | 230
CC(C)c1nc2sc([C@H]3CCCN3C(=O)Oc3ccccc3)nc2c(=O)n1C [Example 135, (R)-2-[6-methyl-7-oxo-5-(propan-2-yl)-6,7-dihydro[1,3]thiazolo[5,4-d]pyrimidin-2-yl]pyrrolidine-1-carboxylic acid phenyl ester] | 23
O=C(Oc1ccccc1)N1CCC[C@@H]1c1nc2c(=O)[nH]c(-c3ccccc3F)cc2s1 [Example 137, (R)-2-[6-(2-fluorophenyl)-4-oxo-4,5-dihydro[1,3]thiazolo[4,5-c]pyridin-2-yl]pyrrolidine-1-carboxylic acid phenyl ester] | 69
O=C(Oc1ccccc1)N1CCC[C@@H]1c1nc2c(=O)[nH]c(C(F)(F)F)cc2s1 [Example 138, (R)-2-(4-oxo-6-trifluoromethyl-4,5-dihydro[1,3]thiazolo[4,5-c]pyridin-2-yl)pyrrolidine-1-carboxylic acid phenyl ester] | 390
CC(C)c1cc(=O)n2nc([C@H]3CCCN3C(=O)Oc3ccc(F)cc3)sc2n1 [Example 140, (R)-2-[5-oxo-7-(propan-2-yl)-5H-[1,3,4]thiadiazolo[3,2-a]pyrimidin-2-yl]pyrrolidine-1-carboxylic acid 4-fluorophenyl ester] | 77
CC(C)c1cc(=O)n2nc([C@H]3CCCN3C(=O)Cc3ccccc3)sc2n1 [Example 142, 2-[(R)-1-(phenylacetyl)pyrrolidin-2-yl]-7-(propan-2-yl)-5H-[1,3,4]thiadiazolo[3,2-a]pyrimidin-5-one] | 980
CC(C)c1cc(=O)n2nc([C@H]3CCCN3C(=O)Cc3ccc(F)cc3)sc2n1 [Example 143, 2-{(R)-1-[2-(4-fluorophenyl)acetyl]pyrrolidin-2-yl}-7-(propan-2-yl)-5H-[1,3,4]thiadiazolo[3,2-a]pyrimidin-5-one] | 2200
CC(C)c1cc(=O)n2nc([C@H]3CCCN3C(=O)OCc3ccccc3)sc2n1 [Example 144, (R)-2-[5-oxo-7-(propan-2-yl)-5H-[1,3,4]thiadiazolo[3,2-a]pyrimidin-2-yl]pyrrolidine-1-carboxylic acid benzyl ester] | 720
CC(C)c1cc(=O)n2nc([C@H]3CCCN3C(=O)COc3ccccc3)sc2n1 [Example 145, 2-[(R)-1-(2-phenoxyacetyl)pyrrolidin-2-yl]-7-(propan-2-yl)-5H-[1,3,4]thiadiazolo[3,2-a]pyrimidin-5-one] | 1500
CCc1cc(=O)n2nc([C@H]3CCCN3C(=O)Oc3ccccc3)sc2n1 [Example 146, (R)-2-(7-ethyl-5-oxo-5H-[1,3,4]thiadiazolo[3,2-a]pyrimidin-2-yl)pyrrolidine-1-carboxylic acid phenyl ester] | 140
CCc1c(C)nc2sc([C@H]3CCCN3C(=O)Oc3ccccc3)nn2c1=O [Example 148, (R)-2-(6-ethyl-7-methyl-5-oxo-5H-[1,3,4]thiadiazolo[3,2-a]pyrimidin-2-yl)pyrrolidine-1-carboxylic acid phenyl ester] | 230
O=C(Oc1ccccc1)N1CCC[C@@H]1c1nn2c(=O)c3c(nc2s1)CCCC3 [Example 149, (R)-2-(5-oxo-6,7,8,9-tetrahydro-5H-[1,3,4]thiadiazolo[2,3-b]quinazolin-2-yl)pyrrolidine-1-carboxylic acid phenyl ester] | 160
CC(C)c1nc2sc([C@H]3CCCN3C(=O)Oc3ccccc3)nn2c(=O)c1Cl [Example 153, (R)-2-[6-chloro-5-oxo-7-(propan-2-yl)-5H-[1,3,4]thiadiazolo[3,2-a]pyrimidin-2-yl]pyrrolidine-1-carboxylic acid phenyl ester] | 48
O=C(Oc1ccccc1)N1CCC[C@@H]1c1nn2c(=O)c3cc(F)ccc3nc2s1 [Example 155, (R)-2-(7-fluoro-5-oxo-5H-[1,3,4]thiadiazolo[2,3-b]quinazolin-2-yl)pyrrolidine-1-carboxylic acid phenyl ester] | 320
CC(C)c1cc(=O)n2nc([C@H]3CCCN3C(=O)NCc3ccccc3)sc2n1 [Example 157, (R)-N-benzyl-2-[5-oxo-7-(propan-2-yl)-5H-[1,3,4]thiadiazolo[3,2-a]pyrimidin-2-yl]pyrrolidine-1-carboxamide] | 470
CC(C)c1cc(=O)n2nc([C@H]3CCCN3C(=O)NCc3ccccc3Cl)sc2n1 [Example 158, (R)-N-(2-chlorobenzyl)-2-[5-oxo-7-(propan-2-yl)-5H-[1,3,4]thiadiazolo[3,2-a]pyrimidin-2-yl]pyrrolidine-1-carboxamide] | 170
CC(C)c1cc(=O)n2nc([C@H]3CCCN3C(=O)Nc3ccccc3)sc2n1 [Example 160, (R)-2-[5-oxo-7-(propan-2-yl)-5H-[1,3,4]thiadiazolo[3,2-a]pyrimidin-2-yl]-N-phenylpyrrolidine-1-carboxamide] | 5200
CC(C)c1cc(=O)n2nc([C@H]3CCCN3C(=O)CN3CCCc4ccccc43)sc2n1 [Example 166, 2-{(R)-1-[(3,4-dihydroquinolin-1(2H)-yl)acetyl]pyrrolidin-2-yl}-7-(propan-2-yl)-5H-[1,3,4]thiadiazolo[3,2-a]pyrimidin-5-one] | 190
CC(C)c1cc(=O)n2nc([C@H]3CCCN3C(=O)NC3(c4ccccc4)CC3)sc2n1 [Example 167, (R)-N-(1-phenylcyclopropyl)-2-[5-oxo-7-(propan-2-yl)-5H-[1,3,4]thiadiazolo[3,2-a]pyrimidin-2-yl]pyrrolidine-1-carboxamide] | 90
CC(C)c1cc(=O)n2nc([C@H]3CCCN3C(=O)N[C@@H]3CCc4ccccc43)sc2n1 [Example 168, (R)-N-((R)-indan-1-yl)-2-[5-oxo-7-(propan-2-yl)-5H-[1,3,4]thiadiazolo[3,2-a]pyrimidin-2-yl]pyrrolidine-1-carboxamide] | 410
CC(C)c1cc(=O)n2nc([C@H]3CCCN3C(=O)N3CCc4ccccc43)sc2n1 [Example 170, 2-[(R)-1-(2,3-dihydro-indole-1-carbonyl)pyrrolidin-2-yl]-7-(propan-2-yl)-5H-[1,3,4]thiadiazolo[3,2-a]pyrimidin-5-one] | 880
Cc1nc2sc([C@H]3CCCN3C(=O)N[C@H](C)c3ccccc3)nn2c(=O)c1C [Example 171, (R)-2-(6,7-dimethyl-5-oxo-5H-[1,3,4]thiadiazolo[3,2-a]pyrimidin-2-yl)-N-((R)-1-phenylethyl)pyrrolidine-1-carboxamide] | 1800
Cc1nc2sc([C@H]3CCCN3C(=O)NC(C)(C)c3ccccc3)nn2c(=O)c1C [Example 172, (R)-2-(6,7-dimethyl-5-oxo-5H-[1,3,4]thiadiazolo[3,2-a]pyrimidin-2-yl)-N-(1-methyl-1-phenylethyl)pyrrolidine-1-carboxamide] | 840

From patent US10065972B2, “Bicyclic or tricyclic heterocyclic compound” (MITSUBISHI TANABE PHARMA CORPORATION, priority 2014, dated 2018)
